For experiment [1], the target named is T1, recombinant human ACC1 (rhACC1) (Homo sapiens, UniProt Q13085, DEL44-44).
T1 construct: recombinant baculovirus containing full length human ACC1 cDNA; made in house; host or cells: SF9 insect cells (baculovirus)
Nature of the experiment: recombinant hACC1 Transcreener assay (direct inhibition of ACC1 activity). Type of experiment: biochemical. The settings on record: Transcreener ADP detection FP assay, 50 μM ATP, 30 μM acetyl-CoA, 120 min at 25° C. In short, it runs like this: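 Full-length human ACC1 from baculovirus-infected SF9 cells, dephosphorylated with lambda phosphatase. Reaction in 50 mM HEPES pH 7.2 with 30 μM acetyl-CoA, 50 μM ATP, 10 mM KHCO3, 120 min at 25° C; ADP detected by Transcreener fluorescence polarisation.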

Experiment [2] concerns the target T2, recombinant human ACC2 (rhACC2) (Homo sapiens, UniProt O00763, V2141I).
T2 construct: a full length Cytomax clone of ACC2 was purchased from Cambridge Bioscience Limited; made in house; host or cells: CHO cells (tetracycline-induced, pcDNA5 FRT TO-TOPO)
Nature of the experiment: recombinant hACC2 Transcreener assay (direct inhibition of ACC2 activity). Type of experiment: biochemical. Conditions: Transcreener ADP detection FP assay, 50 μM ATP, 30 μM acetyl-CoA, 50 min at 25° C. In short, it runs like this:
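Full-length human ACC2 was expressed in CHO cells and avidin-purified. ADP formation was measured by Transcreener FP in 50 mM HEPES pH 7.2 with 30 μM acetyl-CoA, 50 μM ATP, 8 mM KHCO3 and 5 mM citrate. Reactions ran 50 min at 25 °C with 1% DMSO, then 1 h with stop/detect reagent.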

The IC50 is the concentration that gives 50% inhibition.

T2 sequence (O00763 whole entry V2141I): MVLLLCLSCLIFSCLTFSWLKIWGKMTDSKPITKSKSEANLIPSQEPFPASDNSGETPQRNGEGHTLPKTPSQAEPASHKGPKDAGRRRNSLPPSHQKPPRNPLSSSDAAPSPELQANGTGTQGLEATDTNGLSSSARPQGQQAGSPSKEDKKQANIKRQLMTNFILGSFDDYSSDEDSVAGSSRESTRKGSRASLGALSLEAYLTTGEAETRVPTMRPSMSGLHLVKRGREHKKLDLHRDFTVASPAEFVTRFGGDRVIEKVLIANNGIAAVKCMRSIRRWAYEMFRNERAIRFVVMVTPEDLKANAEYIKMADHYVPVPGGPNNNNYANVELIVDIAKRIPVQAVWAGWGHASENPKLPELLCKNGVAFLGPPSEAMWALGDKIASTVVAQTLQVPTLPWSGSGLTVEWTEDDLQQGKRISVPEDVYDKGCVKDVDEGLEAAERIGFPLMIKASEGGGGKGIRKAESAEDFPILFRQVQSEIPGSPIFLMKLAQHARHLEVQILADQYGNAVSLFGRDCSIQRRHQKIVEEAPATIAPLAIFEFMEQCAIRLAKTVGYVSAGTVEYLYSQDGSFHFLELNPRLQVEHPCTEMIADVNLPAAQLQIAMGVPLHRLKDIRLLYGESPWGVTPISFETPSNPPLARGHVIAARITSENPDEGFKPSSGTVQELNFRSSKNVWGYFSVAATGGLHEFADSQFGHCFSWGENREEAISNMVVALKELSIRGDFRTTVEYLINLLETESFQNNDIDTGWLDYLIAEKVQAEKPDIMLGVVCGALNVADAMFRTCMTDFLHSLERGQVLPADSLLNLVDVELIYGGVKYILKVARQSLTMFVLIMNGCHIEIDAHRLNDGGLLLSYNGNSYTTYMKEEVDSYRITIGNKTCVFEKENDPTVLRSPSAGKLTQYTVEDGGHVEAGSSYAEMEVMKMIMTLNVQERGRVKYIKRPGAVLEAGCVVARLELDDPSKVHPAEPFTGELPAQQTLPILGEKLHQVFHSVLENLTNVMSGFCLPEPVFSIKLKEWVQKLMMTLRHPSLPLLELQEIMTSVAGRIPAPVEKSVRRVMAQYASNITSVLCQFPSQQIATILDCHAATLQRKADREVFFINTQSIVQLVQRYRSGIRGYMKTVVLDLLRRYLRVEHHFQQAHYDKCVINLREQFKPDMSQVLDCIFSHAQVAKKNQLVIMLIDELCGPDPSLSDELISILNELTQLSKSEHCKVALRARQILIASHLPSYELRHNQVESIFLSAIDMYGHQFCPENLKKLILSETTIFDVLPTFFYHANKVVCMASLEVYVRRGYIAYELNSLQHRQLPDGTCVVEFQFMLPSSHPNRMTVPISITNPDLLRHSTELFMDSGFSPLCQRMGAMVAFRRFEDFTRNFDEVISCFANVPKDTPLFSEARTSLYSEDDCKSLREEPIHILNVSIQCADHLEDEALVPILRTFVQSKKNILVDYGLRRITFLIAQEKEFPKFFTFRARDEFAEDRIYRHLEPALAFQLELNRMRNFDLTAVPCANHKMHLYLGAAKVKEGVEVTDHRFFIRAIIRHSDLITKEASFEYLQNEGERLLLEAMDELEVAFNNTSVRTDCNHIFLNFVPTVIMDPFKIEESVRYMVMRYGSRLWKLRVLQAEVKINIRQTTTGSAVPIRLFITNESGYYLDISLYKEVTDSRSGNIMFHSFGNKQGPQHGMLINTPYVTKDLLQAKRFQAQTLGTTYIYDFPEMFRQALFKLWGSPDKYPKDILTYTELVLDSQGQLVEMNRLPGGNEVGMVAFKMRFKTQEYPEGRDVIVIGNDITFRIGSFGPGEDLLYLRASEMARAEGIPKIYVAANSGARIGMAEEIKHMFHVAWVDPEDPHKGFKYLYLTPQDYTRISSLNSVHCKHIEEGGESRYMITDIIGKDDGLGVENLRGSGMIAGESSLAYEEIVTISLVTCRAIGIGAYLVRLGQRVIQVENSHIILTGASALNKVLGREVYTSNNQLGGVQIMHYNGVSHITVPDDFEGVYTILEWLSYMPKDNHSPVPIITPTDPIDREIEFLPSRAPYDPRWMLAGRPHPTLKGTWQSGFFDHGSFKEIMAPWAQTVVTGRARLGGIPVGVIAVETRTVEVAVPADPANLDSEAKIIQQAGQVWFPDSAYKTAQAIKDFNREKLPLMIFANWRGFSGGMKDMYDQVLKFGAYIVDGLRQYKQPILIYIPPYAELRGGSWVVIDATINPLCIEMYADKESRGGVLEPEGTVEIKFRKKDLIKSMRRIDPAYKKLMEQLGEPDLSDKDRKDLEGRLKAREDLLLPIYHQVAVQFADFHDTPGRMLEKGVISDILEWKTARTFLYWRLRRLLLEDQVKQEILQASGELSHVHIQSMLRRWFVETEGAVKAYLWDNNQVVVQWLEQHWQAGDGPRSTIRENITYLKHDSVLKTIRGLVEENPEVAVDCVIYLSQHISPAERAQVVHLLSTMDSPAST

Turning to `CC(C)n1ncc2c1C(=O)CC1(CCN(C(=O)c3c[nH]c4ncccc34)CC1)C2` [Example 2A-71], the IC50 was 1060 nM in experiment [1] and 387 nM in experiment [2].
The like results for `CC(C)n1ncc2c1C(=O)CC1(CCN(C(=O)c3ccc4cnccc4c3O)CC1)C2` [Example 2A-72] were, in that order, 599 nM and 290 nM.
With `Cc1nn(C(C)C)c2c1CC1(CCN(C(=O)c3ccc4[nH]ncc4c3)CC1)CC2=O` [Example 2A-75], the IC50 in experiment [1] stood at 113 nM; in experiment [2] it was 37.7 nM.
The like results for `CC(C)n1nc(C#N)c2c1C(=O)CC1(CCN(C(=O)c3ccc4[nH]ncc4c3)CC1)C2` [Example 2A-76] were, in that order, 6620 nM and 1500 nM.
As for `CC(C)(C)n1nc(C#N)c2c1C(=O)CC1(CCN(C(=O)c3ccc4[nH]ncc4c3)CC1)C2` [Example 2A-77], the IC50 in experiment [1] turned out to be 6160 nM; in experiment [2], 1300 nM.
The like results for `CC(C)(C)n1nc(C#N)c2c1C(=O)CC1(CCN(C(=O)c3ccc4[nH]ncc4c3)CC1)C2` [Example 2A-78] were, in that order, 3840 nM and 1270 nM.
The matching figures for `Cc1nc2ccc(C(=O)N3CCC4(CC3)CC(=O)c3c(cnn3C(C)C)C4)cc2[nH]1` [Example 3A-1, 1-isopropyl-1′-(2-methyl-1H-benzo[d]imidazole-5-carbonyl)-4,6-dihydrospiro[indazole-5,4′-piperidin]-7(1H)-one]: 96.1 nM and 48.6 nM.
The matching figures for `CC(C)n1ncc2c1C(=O)C(C)(C)C1(CCN(C(=O)c3ccc4[nH]ncc4c3)CC1)C2` [Example 6A-1, 1′-(1H-indazole-5-carbonyl)-1-isopropyl-6,6-dimethyl-4,6-dihydrospiro[indazole-5,4′-piperidin]-7(1H)-one]: 1530 nM and 373 nM.
For the molecule `Cc1nn(C(C)C)c2c1CC1(CCN(C(=O)c3ccc4[nH]cnc4c3)CC1)CC2=O` [Example 7A-1, 1′-(1H-benzo[d]imidazole-5-carbonyl)-1-isopropyl-3-methyl-4,6-dihydrospiro[indazole-5,4′-piperidin]-7(1H)-one], the half-inhibitory concentration (IC50) was 63.2 nM in experiment [1] and 39.8 nM in experiment [2].
The like results for `CC(C)n1nc(C#N)c2c1C(=O)CC1(CCN(C(=O)c3ccc4[nH]cnc4c3)CC1)C2` [Example 8A-1, 1′-(1H-benzo[d]imidazole-5-carbonyl)-1-isopropyl-7-oxo-1,4,6,7-tetrahydrospiro[indazole-5,4′-piperidine]-3-carbonitrile] were, in that order, 7620 nM and 1660 nM.
The like results for `O=C1CC2(CCN(C(=O)c3ccc4[nH]ncc4c3)CC2)Cc2cnn(C3COC3)c21` [Example 9A-1, 1′-(1H-indazole-5-carbonyl)-1-(oxetan-3-yl)-4,6-dihydrospiro[indazole-5,4′-piperidin]-7(1H)-one] were, in that order, 704 nM and 264 nM.
The matching figures for `CC(C)n1ncc2c1C(=O)CC1(CCN(C(=O)c3ccc4[nH]ncc4c3)CC1)C2` [Example 10A-1, 1′-(1H-indazole-5-carbonyl)-1-isopropyl-4,6-dihydrospiro[indazole-5,4′-piperidin]-7(1H)-one]: 43.8 nM and 22.3 nM.
As for `CC(C)n1ncc2c1C(=O)CC1(CCN(C(=O)c3ccc(-c4ncc[nH]4)cc3)CC1)C2` [Example 11A-1, 1′-(4-(1H-imidazol-2-yl)benzoyl)-1-isopropyl-4,6-dihydrospiro[indazole-5,4′-piperidin]-7(1H)-one], the IC50 in experiment [1] was found to be 147 nM; in experiment [2], 31.8 nM.
Take `Cc1cc(C(=O)N2CCC3(CC2)CC(=O)c2c(cnn2C(C)C)C3)c(N)c(C)n1` [Example 11A-2]: the figures for the IC50 in experiment [1] and in experiment [2] were 1480 nM and 658 nM, respectively.
The like results for `CC(C)n1ncc2c1C(=O)CC1(CCN(C(=O)c3cccc(-c4c[nH]cn4)c3)CC1)C2` [Example 11A-3] were, in that order, 74.7 nM and 25.4 nM.
The matching figures for `Cc1cc(C(=O)N2CCC3(CC2)CC(=O)c2c(cnn2C(C)C)C3)n(-c2cccnc2)n1` [Example 11A-4]: 19600 nM and 5800 nM.
The like results for `Cc1cc(C(=O)N2CCC3(CC2)CC(=O)c2c(cnn2C(C)(C)C)C3)n(-c2cccnc2)n1` [Example 11A-5] were, in that order, 16400 nM and 13200 nM.
Turning to `CC(C)n1ncc2c1C(=O)CC1(CCN(C(=O)c3nn(-c4ccccc4)nc3N)CC1)C2` [Example 11A-6], the IC50 was found to be 989 nM in experiment [1] and 459 nM in experiment [2].
The matching figures for `CC(C)(C)n1ncc2c1C(=O)CC1(CCN(C(=O)c3cccc(-c4c[nH]cn4)c3)CC1)C2` [Example 11A-7]: 36.8 nM and 10.4 nM.
The like results for `CC(C)n1ncc2c1C(=O)CC1(CCN(C(=O)c3ccc4[nH]nc(C#N)c4c3)CC1)C2` [Example 11A-9] were, in that order, 34.4 nM and 19.7 nM.
The like results for `CC(C)n1ncc2c1C(=O)CC1(CCN(C(=O)c3cccnc3C(N)=O)CC1)C2` [Example 11A-10] were, in that order, 6670 nM and 789 nM.
In the case of `CC(C)(C)n1ncc2c1C(=O)CC1(CCN(C(=O)c3cccnc3C(N)=O)CC1)C2` [Example 11A-11], the half-inhibitory concentration (IC50) in experiment [1] came out at 10600 nM; in experiment [2], 1450 nM.
The like results for `CC(C)(C)n1ncc2c1C(=O)CC1(CCN(C(=O)c3nn(-c4ccccc4)nc3N)CC1)C2` [Example 11A-12] were, in that order, 152 nM and 850 nM.
The like results for `Cc1cccn2cc(C(=O)N3CCC4(CC3)CC(=O)c3c(cnn3C(C)C)C4)nc12` [Example 11A-14] were, in that order, 418 nM and 253 nM.
The like results for `CC(C)n1ncc2c1C(=O)CC1(CCN(C(=O)c3cccc(-c4cc[nH]n4)c3)CC1)C2` [Example 11A-15] were, in that order, 112 nM and 43.8 nM.
`Cc1cccn2cc(C(=O)N3CCC4(CC3)CC(=O)c3c(cnn3C(C)(C)C)C4)nc12` [Example 11A-16]: the IC50 is 621 nM in experiment [1] and 190 nM in experiment [2].
The like results for `CC(C)(C)n1ncc2c1C(=O)CC1(CCN(C(=O)c3cccc(-n4cccn4)c3)CC1)C2` [Example 11A-17] were, in that order, 129 nM and 48.4 nM.
`CC(C)n1ncc2c1C(=O)CC1(CCN(C(=O)c3ccnc(-c4cc[nH]n4)c3)CC1)C2` [Example 11A-18]: the IC50 worked out at 235 nM in experiment [1] and 56.3 nM in experiment [2].
The matching figures for `CC(C)(C)n1ncc2c1C(=O)CC1(CCN(C(=O)c3c[nH]c4ncccc34)CC1)C2` [Example 11A-19]: 242 nM and 71.6 nM.
The matching figures for `CC(C)(C)n1ncc2c1C(=O)CC1(CCN(C(=O)c3ccc(N4CCOCC4)nc3)CC1)C2` [Example 11A-22]: 1260 nM and 539 nM.
In the case of `CC(C)(C)n1ncc2c1C(=O)CC1(CCN(C(=O)c3cccc(-c4cc[nH]n4)c3)CC1)C2` [Example 11A-23], the IC50 was 87.1 nM in experiment [1] and 20.4 nM in experiment [2].
The matching figures for `CC(C)n1ncc2c1C(=O)CC1(CCN(C(=O)c3ccc(N4CCOCC4)nc3)CC1)C2` [Example 11A-24]: 6060 nM and 836 nM.
For `Cc1nn(C)c(C(=O)N2CCC3(CC2)CC(=O)c2c(cnn2C(C)(C)C)C3)c1O` [Example 11A-25], the IC50 in experiment [1] is 331 nM; in experiment [2] it was 745 nM.
The like results for `CC(C)(C)n1ncc2c1C(=O)CC1(CCN(C(=O)c3ccnc(-c4cc[nH]n4)c3)CC1)C2` [Example 11A-26] were, in that order, 130 nM and 41.5 nM.
The matching figures for `Cc1ccn2cc(C(=O)N3CCC4(CC3)CC(=O)c3c(cnn3C(C)(C)C)C4)nc2c1` [Example 11A-27]: 584 nM and 309 nM.
The like results for `CC(C)n1ncc2c1C(=O)CC1(CCN(C(=O)c3cn4ccccc4n3)CC1)C2` [Example 11A-28] were, in that order, 917 nM and 391 nM.
As for `CC(C)(C)n1ncc2c1C(=O)CC1(CCN(C(=O)c3cc(-c4cccnc4)[nH]n3)CC1)C2` [Example 11A-29], the figures for the IC50 in experiment [1] and in experiment [2] were 151 nM and 64.5 nM, respectively.
The like results for `CNc1nc(C)ccc1C(=O)N1CCC2(CC1)CC(=O)c1c(cnn1C(C)(C)C)C2` [Example 11A-30] were, in that order, 224 nM and 106 nM.
The matching figures for `CC(C)n1ncc2c1C(=O)CC1(CCN(C(=O)c3cnc4cn[nH]c4c3)CC1)C2` [Example 11A-31]: 117 nM and 83.4 nM.
The like results for `CC(C)(C)n1ncc2c1C(=O)CC1(CCN(C(=O)c3ccn4cncc4c3)CC1)C2` [Example 11A-32] were, in that order, 155 nM and 96.4 nM.
For the molecule `CC(C)n1ncc2c1C(=O)CC1(CCN(C(=O)c3cnc4[nH]cnc4c3)CC1)C2` [Example 11A-33], the IC50 turned out to be 272 nM in experiment [1] and 93.1 nM in experiment [2].
`CC(C)n1ncc2c1C(=O)CC1(CCN(C(=O)c3cn4cccc4cn3)CC1)C2` [Example 11A-34]: the 50% inhibitory concentration (IC50) in experiment [1] came to 2140 nM; in experiment [2], 638 nM.
The matching figures for `CC(C)n1ncc2c1C(=O)CC1(CCN(C(=O)c3c[nH]c4ccnn4c3=O)CC1)C2` [Example 11A-35]: 3340 nM and 2130 nM.
The like results for `CC(C)(C)n1ncc2c1C(=O)CC1(CCN(C(=O)c3cc4ccccn4c3)CC1)C2` [Example 11A-36] were, in that order, 194 nM and 75.6 nM.

For the origin of these results see patent US9139587B2, “N1-pyrazolospiroketone acetyl-CoA carboxylase inhibitors” (Pfizer Inc., priority 2009, dated 2015).
